From patent US8809368B2, “Compounds affecting gap junction activity” (Kansas State University Research Foundation, priority 2006, dated 2014)
Converted amounts (≈) assume the structure as drawn. Blank lines part the entries; values can stand above or below the molecule they belong to.

Experiments:
ZR75 = assay: Gap junction intercellular communication, ZR75 cells; type: cell-based, human; conditions: Table 1
MCF-7 = assay: Gap junction intercellular communication, MCF-7 cells; type: cell-based, human; conditions: Table 1
MDA-MB-453 cells = assay: Gap junction activity (GJIC), flow cytometry of dye coupling, MDA-MB-453 cells; type: cell-based, human; conditions: MDA-MB-453; for effect on gap junction intercellular communication: Table 1, concentration not given
Protocol: FIG. 4(A) MDA-MB-453 and (B) T47D cells were treated with low (500 nM) and high (10 μM) concentrations of PQs for 24 hours. Monolayers of acceptor cell population were grown on 25-cm flasks in the presence of Vibrant DiD. Vybrant DiD in acceptor cells is not able to pass through the gap junctions because of its hydrophobic property. Single cell suspensions of donor treated cells were prepared, labeled with 0.05 μg/ml calcein-AM, incubated at 37 C for 5 minutes. Quantification of dye coupling between the donor and acceptor cells was assessed by dual-excitation flow cytometry. […] Cells treated with 10 μM PQ3 have approximately 40-50% decrease in gap junction activity compared control or DMSO.

HT29 = assay: Gap junction intercellular communication, HT29 colon cancer cells; type: cell-based; conditions: Table 3
MDA-MB-231 = assay: Gap junction intercellular communication, MDA-MB-231 cells; type: cell-based, human; conditions: Table 1
[1] = tested on: MDA-MB-453 human breast cancer cells; assay: Soft agar colony growth, MDA-MB-453 cells; type: cell-based; conditions: Table 2
Protocol: (§1) FIG. 3(A) MDA-MB-453 and (B) T47D human breast cancer cells were treated with 10 μM of various quinolines for 7 days. Base agar plates were prepared containing 0.8% agar and 0.4% agar in Ham's F12. Cells (5×10^4 cells/33 mm well) were suspended in 100 μl of Ham's F12 with 0.4% agar and plated. These plates were maintained at 37° C. for 7 days and examined for the presence of colonies. Individual colonies of 40 μm or greater were examined. […] However, PQ3 caused a 2.3-fold increase in colony growth in MDA-MB-453 cells and PQ2 caused a 2.6-fold increase in T47D colony growth compared to DMSO. FIGS. 7 and 8 show MDA-MB-453 and T47D colony growth for various concentrations of PQ1 and SA tested for 7 days. The procedures are generally as described above. The cell colony growth decreased using 10 and 100 nM PQ1 for both cell types. Colony Growth Assay: T47D human breast cancer cells were treated with PQ1. Base agar plates were prepared containing 0.8% agar and 0.4% agar in Ham's F12. Cells (5×10^4 cells/33 mm2 well) were suspended in 100 μl of Ham's F12 with 0.4% agar and plated. These plates were maintained at 37° C. for 7 days and examined for the presence of colonies. Individual colonies of 40 um or greater were examined.

Trypanosoma brucei = assay: Anti-trypanosomal activity, inhibition of T. brucei growth (ATP-bioluminescence luciferase assay); type: cell-based; conditions: read-out: IC50 against Trypanosoma brucei
Protocol: The antiparasitic activities of exemplary compounds described here was studied using the anti-trypanosomal activity protocol described in: Rapp M, et al. J Med Chem 2006; 49:2096-102. […] FIG. 1 summarizes the compound inhibition of T. brucei growth. It is seen that compounds of the invention are useful in inhibiting T. brucei growth.
Culturing of Parasites. The bloodstream form of Trypanosoma brucei 427 strain was maintained under the standard cell culture conditions (37° C., 5% CO2). The parasites were grown in complete HMI-9 medium containing 10% FBS, 10% Serum Plus and 1× Penicillin/Streptomycin. (Angew. Chem. Int. Ed. Engl. 2003, 42, 5274-5293).
Luciferase Assay. Luciferase assay was used to measure ATP-bioluminescence in T. brucei cultured in 96-well plates at 37° C. for 48 hours. Parasites were diluted to 1.0×10^5 cells/mL in complete HMI-9 medium. One hundred microliters (100 μL) of the diluted parasites were aliquoted into sterile 96-well flat white opaque culture plates (Greiner). Each compound was serially diluted from 10 μM to 0.1 μM in DMSO and then mixed in the appropriate wells containing parasites. The treated parasites were then incubated for 48 hours at 37° C. with 5% CO2 before monitoring viability. To measure the viability of the parasites after treatment with each compound, the parasites were lysed in the wells by adding 100 μL of CellTiter-Glo™ (Promega). After lysis, the ATP bioluminescence of the 96-well plates was measured with a SpectraFluor Plus multidetection plate reader (Tecan).

SW620 colon cancer cells = assay: Gap junction activity, SW620 colon cancer cells; type: cell-based
Protocol: However, PQ3 has an opposite effect on mammary cancer cell lines. […] A summary of PQ-mediated GJIC activity and colony growth in breast and colon cancer cells is presented in Tables 1, 2, and 3, as well as FIGS. 10-13. In FIG. 10, SW620 cells were dosed for 24 hours with PQ1 at 100, 200, 300, and 500 nM. The gap junction activity was measured as a percent of control, as previously described. It was seen that all concentrations on PQ1 increased the gap junction activity in SW620 colon cancer cells as compared to the control. In FIG. 11, the effect of PQ1 on the expression of PKCγ was studied at concentrations of 100, 200, 300 and 500 nM PQ1 for 24 hours. It is seen in FIG. 11 that PQ1 has no effect on the expression of PKCγ at the levels tested. In FIGS. 12 and 13, the effect of PQ1 on the colony growth of SW620 colon cancer cells was measured with 1-100 nM PQ1 (FIG. 12) and 10 uM PQ1 (FIG. 13).

[2] = tested on: T47D human breast cancer cells; assay: Soft agar colony growth, T47D cells; type: cell-based; conditions: for effect on breast cancer cell colony growth: Table 2
Protocol: Base agar plates were prepared containing 0.8% agar and 0.4% agar in Ham's F12. Cells (5×10^4 cells/33 mm^2 well) were suspended in 100 μl of Ham's F12 with 0.4% agar and plated. These plates were maintained at 37° C. for 7 days and examined for the presence of colonies. Individual colonies of 50 μm or greater were examined. T47D cells were treated with 1, 10 and 100 nM PQ1 and SA (succinic acid) as a solvent control. Individual colonies of 50 μm or greater were examined. Statistical significance, *p<0.05, of at least three experiments
as §1, with “types.” for “types. Colony Growth Assay: T47D human breast cancer cells were treated with PQ1. Base agar plates were prepared containing 0.8% agar and 0.4% agar in Ham's F12. Cells (5×10^4 cells/33 mm2 well) were suspended in 100 μl of Ham's F12 with 0.4% agar and plated. These plates were maintained at 37° C. for 7 days and examined for the presence of colonies. Individual colonies of 40 um or greater were examined.”
(§2) Colony Growth Assay: T47D human breast cancer cells were treated with PQ1. Base agar plates were prepared containing 0.8% agar and 0.4% agar in Ham's F12. Cells (5×10^4 cells/33 mm2 well) were suspended in 100 μl of Ham's F12 with 0.4% agar and plated. These plates were maintained at 37° C. for 7 days and examined for the presence of colonies. Individual colonies of 40 um or greater were examined.
Various oncogenes (e.g. ras, raf, neu, src, mos) down-regulate GJIC while several tumor suppressor genes can up-regulate GJIC. […] Cells were grown in soft agar to assess their capacity for anchorage-independent growth, which is a key feature of cell transformation due to the importance of cell-cell and cell-matrix based tumor suppression. MEC and T47D cells were treated with 10, 100, 1000, and 10000 nM PQ1 for 7 days. A graphical presentation of three experiment results is presented in log scale of PQ1 concentration. […] A 100 nM PQ1 inhibits 66% of colony growth compared to controls, without PQ1 treatment or 100 nM succinic acid.
as §2, with “Using Soft Agar. Cells” for “Assay: T47D human breast cancer cells”, “0, 10, 100, 200 and 500 nM PQ1 for 7 days.” for “PQ1.”, “mm^2” for “mm2”, “50 μm” for “40 um”

R28 cells = assay: Dye transfer/scrape loading gap junction assay in R28 cells; type: cell-based, rat; conditions: 10 μM for 40 minutes, compared to untreated control cells
Protocol: To determine the effects of the compounds of the invention on gap junctions, […] R28 cells and lucifer yellow dye and rhodamine dextran were used to study gap junction. (Das, S.; Lauer, J.; Barnett, M.; Lin, D.; Akoev, V.; Battina, S.; Hua, D. H.; Takemoto, D. J. PKCγ phosphorylates connexin50 on serine-430. A presentation at 2006 ARVO Annual Meeting, Apr. 30-May 4, 2006, Fort Lauderdale, Fla.). […] The cells were treated with different compounds as shown @ 10 μM for 40 minutes. A mixture of lucifer yellow (LY) and rhodamine dextran (RD) was added to the cells at the center of the coverslip. Two cuts across the coverslip were made to form a transient tear in the plasma membranes of the cells to permit dye transfer through gap junctions. Cells were incubated with the dye for 20 minutes, then fixed and examined by fluorescent microscopy. For quantitative analysis the extent of dye transfer was estimated by counting the number of LY and RD labeled cells in the microscopic field and graphed. […] PQ3 is useful as a drug having reduced gap junction inhibitory activity. The gap junction activity of other compounds of the invention may be tested as described herein without the use of undue experimentation.
Gap junction activity assay. R28 cells were grown to 90% confluency on coverslips. They were treated with PQ1 at 10 μM for 40 min. A mixture of 1% each, in PBS, Lucifer yellow (LY) and Rhodamine Dextran (RD) (Molecular Probes, Eugene, Oreg.) were added to the cells at the center of the coverslip. Two cuts across the coverslip were made to form a transient tear in the plasma membranes of the cells to permit dye entry into cells. Cells were incubated with 2.5 μl of both of the dyes for 20 min, then fixed in 2.5% paraformaldehyde, washed in PBS and examined by fluorescent microscopy using a Nikon C1 confocal microscopy. For quantitation, the extent of dye transfer was calculated by counting the number of LY-labeled cells from the initial scrape with subtraction of RD-labeled cells, as a cell damage control, in the microscopic field. Four points per slide were photographed. The experiments were repeated six times, and data are means±SEM.

IC50 (Trypanosoma brucei): 2.5 µg/mL (≈ 6.6 µM)
SMILES: COc1cc([N+](=O)[O-])c2nccc(C)c2c1Oc1cccc(C(F)(F)F)c1 [PQ2, 6-Methoxy-4-methyl-8-nitro-5-(3-trifluoromethylphenyloxy)quinoline]
effect on gap junction intercellular communication (ZR75): No effect
effect on gap junction intercellular communication (MCF-7): Decrease
effect on gap junction activity (MDA-MB-453 cells; 24 hours): no significant effect
effect on gap junction intercellular communication (MDA-MB-453 cells): No effect
effect on gap junction intercellular communication (HT29): Increase
effect on gap junction intercellular communication (MDA-MB-231): Decrease
effect on breast cancer cell colony growth [1]: No effect
effect on gap junction intercellular communication (SW620 colon cancer cells; Table 3, 6 uM): Increase
increase in colony growth ([2]; 10 μM, 7 days, compared to DMSO): 2.6 fold
effect on breast cancer cell colony growth [2]: Increase

IC50 (Trypanosoma brucei): 25 µg/mL (≈ 76.2 µM)
SMILES: COc1cc([N+](=O)[O-])c(N)cc1Oc1cccc(C(F)(F)F)c1 [PQ4, 4-Amino-5-nitro-2-(3-trifluoromethylphenyloxy)anisole]
effect on gap junction intercellular communication (ZR75): No effect
effect on gap junction intercellular communication (MCF-7): No effect
effect on gap junction intercellular communication (MDA-MB-453 cells): No effect
effect on gap junction intercellular communication (HT29): Increase
effect on gap junction intercellular communication (MDA-MB-231): Decrease
effect on breast cancer cell colony growth [1]: No effect
effect on gap junction intercellular communication (SW620 colon cancer cells; Table 3, concentration not given): No effect
effect on colony growth ([2]; 10 μM, 7 days): inhibitory effect
effect on breast cancer cell colony growth [2]: Decrease

SMILES: OC(c1cc(C(F)(F)F)nc2c(C(F)(F)F)cccc12)C1CCCCN1 (centres unmarked) [mefloquine, reference compound]
block of lucifer yellow dye transfer through gap junctions (R28 cells): blocked dye transfer significantly
block of lucifer yellow dye transfer through gap junctions (R28 cells; listed as MQ): hardly any passage of the dye
